Experimental data: patent EP0643069B1, “2'-DEOXY-2'-FLUOROCOFORMYCIN AND STEREOISOMERS THEREOF” (priority 1991, dated 1993)
Values after ≈ are worked out from the molar mass of the structure shown. Like-named read-outs stand apart in the source and are kept apart here.

How the values were obtained:
[1] = tested on: Providencia rettgeri GN466; assay: Minimum growth-inhibitory concentration, standard serial dilution assay; assay type: cell-based
Experimental: (§1) That is, a test was conducted to measure the minimum growth-inhibitory concentrations (MIC, mcg/ml) of these compounds against some microorganisms using a standard serial dilution assay method.

Providencia sp. 2991 = assay: as above; assay type: cell-based
Experimental: as §1

adenosine deaminase = molecular target: T1, adenosine deaminase (Bos taurus, UniProt P56658); assay: Enzyme-inhibitory activity against adenosine deaminase (optical density at 265 nm); assay type: biochemical
T1 construct: purchased Sigma Chemical Type VI
T1 sequence (P56658 1-363): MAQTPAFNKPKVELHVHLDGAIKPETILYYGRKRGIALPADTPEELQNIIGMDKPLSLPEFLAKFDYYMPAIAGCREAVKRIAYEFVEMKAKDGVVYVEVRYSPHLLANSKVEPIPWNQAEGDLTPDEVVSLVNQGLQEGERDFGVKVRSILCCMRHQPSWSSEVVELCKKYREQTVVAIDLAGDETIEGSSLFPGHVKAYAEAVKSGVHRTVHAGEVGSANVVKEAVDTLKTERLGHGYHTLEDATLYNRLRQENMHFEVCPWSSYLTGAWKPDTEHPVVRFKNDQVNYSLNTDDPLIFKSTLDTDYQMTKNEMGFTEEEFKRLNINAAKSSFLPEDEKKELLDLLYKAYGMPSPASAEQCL
Experimental: The test of evaluating the inhibitory activity of each of the compounds against adenosine deaminase was carried out as given below.
Optical density of the reaction mixture obtained was measured with time (measured at the wave length of 265 nm), and the IC50 value of the tested compound against adenosine deaminase was calculated on the basis of decreases in the measured values of the optical density.

[2] = Stability in aqueous hydrochloric acid solution (pH 2), followed by thin-layer silica gel chromatography; assay type: physicochemical; settings: water acidified with hydrochloric acid, pH 2, 25°C
Experimental: The test was carried out in accordance with the following method.
An aqueous solution (pH 2) of the test compound dissolved in water as acidified with hydrochloric acid was kept at 25°C, from which samples were taken out with time for analizing by thin-layer silica gel chromatography using acetonitrile-0.2 M aqueous ammonium chloride (3:1) as the development solvent. The spot of the test compound on the silica gel thin-layer was detected by using UV method, staining tests with conc. sulfuric acid and coloring tests with aqueous ammonium molybdate sulfuric acid solution, in combination, whereby the time (in hour) required for the test compound to disappear completely in the aqueous hydrochloric acid solution was determined. By way of comparison, coformycin and pentostatin were also tested by the same method.

Escherichia coli = assay: Antibacterial activity of formycin A against Escherichia coli on bouillon-agar medium, with and without test compound; assay type: cell-based; settings: for growth of Escherichia coli where test compound had permeated medium containing formycin A: test compound 1 mcg/ml, formycin A 100 mcg/ml in bouillon-agar medium, about 37°C
Experimental: In this test, an aqueous solution of each of the compounds to be tested, i.e. FCF, e-FCF, Ara-FCF or Ara-e-FCF, at a concentration of 1 mcg/ml, was added in the form of several drops on the surface of a bouillon-agar medium containing formycin A at a concentration of 100 mcg/ml to form a circular film of the said aqueous solution thereon. Then, the medium was allowed to stand to make the test compound permeate into the bouillon-agar layer. Subsequently, a strain of Escherichia coli was inoculated on the overall surface of said medium and the inoculated medium was incubated at about 37°C.

mice [3] = assay: Acute toxicity in mice, intraperitoneal administration; assay type: in vivo; settings: 100 mg/kg
mice [4] = settings: intravenous administration, cited from earlier work
[5] = phosphate buffer 0.05 M, pH 7.4, 25°C, 5 minutes pre-incubation, substrate adenosine, read-out: Enzyme-inhibitory activity, IC50

Structure (SMILES) | IC50 (adenosine deaminase; [5]) [nM] | Time (hours) required for complete disappearance of test compound in aqueous solution at pH 2 at 25°C [2] [hours] | growth of Escherichia coli where test compound had permeated medium containing formycin A (Escherichia coli) | further results
NC1O[C@H](CO)[C@@H](O)[C@@H]1F (stereo partly drawn) [2-deoxy-2-fluoro-α,β-D-arabinofuranosyl amine] | – | – | – | MIC [1]: 50 µg/mL (≈ 331 µM); MIC (Providencia sp. 2991): 100 µg/mL (≈ 662 µM)
NC1O[C@H](CO)[C@@H](O)[C@H]1F (stereo partly drawn) [2-deoxy-2-fluoro-α,β-D-ribofuranosyl amine] | – | – | – | MIC [1]: 50 µg/mL (≈ 331 µM); MIC (Providencia sp. 2991): 100 µg/mL (≈ 662 µM)
OC[C@H]1O[C@@H](n2cnc3c2N=CNC[C@H]3O)[C@@H](F)[C@@H]1O [Ara-FCF, (8R)-3-(2-deoxy-2-fluoro-β-D-arabinofuranosyl)-3,6,7,8-tetrahydroimidazo [4,5-d][1,3]diazepin-8-ol] | 0.77 | 15 | the bacteria could not grow to form the circular inhibition zone | acute toxicity (death of mice) (mice [3]): no death of the mice
OC[C@H]1O[C@@H](n2cnc3c2N=CNC[C@@H]3O)[C@@H](F)[C@@H]1O [Ara-e-FCF, (8S)-3-(2-deoxy-2-fluoro-β-D-arabinofuranosyl)-3,6,7,8-tetrahydroimidazo[4,5-d][1,3]diazepin-8-ol] | 2200 | – | the bacteria could not grow to form the circular inhibition zone | –
OC[C@H]1O[C@@H](n2cnc3c2N=CNC[C@H]3O)[C@H](O)[C@@H]1O [Coformycin, (8R)-3-(β-D-ribofuranosyl)-3,6,7,8-tetrahydroimidazo[4,5-d][1,3]diazepin-8-ol] | – | 10 | – | IC50 (adenosine deaminase): 1.7 nM; acute toxicity (death of mice) (mice [4]; 12.5 mg/kg): cause the death of mice
OC[C@H]1O[C@@H](n2cnc3c2N=CNC[C@H]3O)[C@H](F)[C@@H]1O [FCF, (8R)-3-(2-deoxy-2-fluoro-β-D-ribofuranosyl)-3,6,7,8-tetrahydroimidazo [4,5-d][1,3]diazepin-8-ol] | 17 | 15 | the bacteria could not grow to form the circular inhibition zone | –
OC[C@H]1O[C@@H](n2cnc3c2NC=NC[C@H]3O)C[C@@H]1O [Pentostatin, 2'-deoxycoformycin, reference compound] | – | 1 | – | acute toxicity (body weight of tested mice) (mice [4]; 25 mg/kg): cause the decrease in the body weight of tested mice
OC[C@H]1O[C@@H](n2cnc3c2N=CNC[C@@H]3O)[C@H](F)[C@@H]1O [e-FCF, (8S)-3-(2-deoxy-2-fluoro-β-D-ribofuranosyl)-3,6,7,8-tetrahydroimidazo [4,5-d][1,3]diazepin-8-ol] | 100 | – | the bacteria could not grow to form the circular inhibition zone | –
Nc1ncnc2c([C@@H]3O[C@H](CO)[C@@H](O)[C@H]3O)n[nH]c12 [formycin A] | – | – | – | antibacterial activity against Escherichia coli (Escherichia coli; formycin A alone at 100 mcg/ml): no antibacterial activity
